Reference: paper PMC5933457, “Probing biological activity through structural modelling of ligand-receptor interactions of 2,4-disubstituted thiazole retinoids” (Bioorganic & Medicinal Chemistry, 2018)
Like-named read-outs stand apart in the source and are kept apart here.

Columns and labels:
[1] = molecular target: T1, RARα ligand-binding domain (GST-RAR-α-LBD) (Homo sapiens, UniProt P10276); assay: LanthaScreen TR-FRET RARα co-activator (receptor binding) assay; format: biochemical; conditions: for EC50: read-out: EC50 (95% confidence range) RARα; for binding-curve upper asymptote (coactivator recruitment), RARα: in words, Fig. 6A
T1 construct: purchased Invitrogen
T1 sequence (P10276 183-417 limits assumed): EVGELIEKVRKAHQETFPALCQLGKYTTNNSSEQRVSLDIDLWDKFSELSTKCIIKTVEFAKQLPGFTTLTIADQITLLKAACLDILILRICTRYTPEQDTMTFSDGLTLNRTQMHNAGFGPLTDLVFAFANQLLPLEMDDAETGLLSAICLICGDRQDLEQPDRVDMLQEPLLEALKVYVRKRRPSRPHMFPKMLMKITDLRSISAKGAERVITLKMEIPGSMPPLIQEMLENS
Method: (§1) These predictions were tested through a receptor-binding assay for each RAR isotype (Fig. 6), where the assay signal is dependent on two parameters: the binding affinity of ligand to the RAR LBD, and the affinity of the coactivator for the ligand-LBD complex. For this assay, binding curves and variation in level of the upper asymptote can reflect differences in co-activator affinity for the ligand-LBD complex; variation in affinity of ligand for LBD shifts the midpoint (EC50) of the binding curve, whereas changes in the level of the upper asymptote may result from changes in coactivator affinity for the ligand-LBD complex alone, or in combination with changes in affinity for ligand with LBD.[23]
(§2) The binding interaction of each retinoid with RARα, β and γ were determined in vitro by time-resolved fluorescence resonance energy transfer (TR-FRET) using the LanthaScreen TR-FRET RARα, RARβ, and RARγ co-activator assays according to the manufacturer’s (Invitrogen™) instructions.[23] This uses a terbium-labeled anti-GST antibody, a fluorescein-labeled co activator peptide, and RARα/β/γ ligand-binding domains (LBD) that are tagged with glutathione-S-transferase (GST) in a homogenous assay format. All experiments were performed in black, 384-well low-volume plates in the dark at RT with a 4 h incubation time. The final assay volume was 20 μL and all dilutions were carried out using TR-FRET assay buffer, with a final DMSO concentration of 1%. A mixture of either 3.5 nM GST-RAR-α-LBD or 2.5 nM GST-RAR-β-LBD or 3 nM GST-RAR-γ-LBD with 62.5 nM Tb-anti GST antibody and 30 μM fluorescein-labeled peptide and retinoid or DMSO control was added to each of the wells. Each ligand assay was performed in duplicate and measured using a PHERAstar FS Microplate Reader (BMG Labtech, Ortenberg, Germany) with instrument settings as described in the manufacturer’s instructions for LanthaScreen assays. The TR-FRET signal was expressed as the ratio of the signals at 520 nm and 490 nm. The data were fitted to a three-parameter ligand-binding curve using SigmaPlot (version 12.5, Systat Software Inc., San Jose CA) and normalized to the lower asymptote of each binding curve. […] Since the assay involves interactions between ligand and LBD, and ligand-dependent interactions between the LBD and fluorescein-labeled co activator, the binding assay data were interpreted by simulating these coupled chemical reactions using the biochemical simulator COPASI version 4.3.[23], [54]
(§3) The readout of the Lanthascreen TR-FRET binding assay is based on a Forster resonance energy transfer (FRET) signal generated from the interaction between a terbium-labelled anti-glutathione-S-transferase (GST) antibody and a fluorescein-labelled coactivator peptide. The RAR ligand-binding domain (LBD) is a GST fusion protein and interaction between the LBD and the fluorescein-labelled coactivator peptide is driven by the binding of ligand to the LBD, and detected by the FRET signal from the terbium/fluorescein interaction when the terbium-labelled anti-GST binds the LBD fusion protein. The output of the assay thus relies on two binding interactions: ligand with LBD, and ligand-bound LBD with the coactivator peptide. As both interactions may be affected by the fit of ligand to the binding pocket of the LBD, we used the biochemical pathway simulator COPASI^1 to build a simple model of how the FRET signal output in the assay will vary according to differential changes in the kinetics of the two binding interactions. Reactions were modelled deterministically using mass-action kinetics described by ordinary differential equations (ODE) within COPASI.^1 This model enables us to assess the effect of different rate constants and varying ligand concentration on the formation of the final ternary complex that is the read-out from the Lanthascreen TR-FRET assay.

[2] = tested on: TERA2.cl.SP12 embryonal carcinoma stem cells; assay: Flow cytometry of cell-surface differentiation markers SSEA-3, TRA-1–60, A2B5; format: cell-based, human; conditions: 10 μM retinoid, 7 days, compared to ATRA and control cultures, Fig. 7A
Text: First, we examined neuronal differentiation in pluripotent TERA2.cl.SP12 human embryonal carcinoma stem cells in response to retinoid treatment. TERA2.cl.SP12 cells have been used in previous studies, [29] to test the ability of synthetic retinoids to induce differentiation along a neuronal or an alternative epithelial pathway at long in vitro timescales of up to three weeks. […] Since the parent carboxylic acid (GZ24) had little activity, the response to GZ22 was a real effect of the ester rather than a result of hydrolysis of the parent ester to the carboxylic acid.
The expression of specific cell surface protein markers (SSEA-3, TRA-1–60, A2B5) on TERA2.cl.SP12 was analyzed using flow cytometry as described previously.[53] Briefly, TERA2.cl.SP12 cells, 2 × 10^5 per 25 cm^2 flask, were seeded 12–24 h before treatment with 10 μM retinoid for 7 days. The primary antibodies used were SSEA-3 (diluted 1:10, University of Iowa Hybridoma Bank), TRA-1–60 (diluted 1:50, Abcam) and neural cell marker A2B5 (diluted 1:40, R&D Systems). Labeled cells were analyzed in a Guave EasyCyte Plus System (Millipore) flow cytometer and thresholds determining the numbers of positively expressing cells were set against the negative control antibody, P3X.

[3] = molecular target: T2, RARγ ligand-binding domain (GST-RAR-γ-LBD) (Homo sapiens, UniProt P13631); assay: LanthaScreen TR-FRET RARγ co-activator (receptor binding) assay; format: biochemical; conditions: for EC50: estimated EC50, TR-FRET co-activator assay, 4 h incubation, read-out: EC50 (95% confidence range) RARγ; for binding-curve upper asymptote (coactivator recruitment), RARγ: in words, Fig. 6C
T2 construct: purchased Invitrogen
T2 sequence (P13631 185-419 limits assumed): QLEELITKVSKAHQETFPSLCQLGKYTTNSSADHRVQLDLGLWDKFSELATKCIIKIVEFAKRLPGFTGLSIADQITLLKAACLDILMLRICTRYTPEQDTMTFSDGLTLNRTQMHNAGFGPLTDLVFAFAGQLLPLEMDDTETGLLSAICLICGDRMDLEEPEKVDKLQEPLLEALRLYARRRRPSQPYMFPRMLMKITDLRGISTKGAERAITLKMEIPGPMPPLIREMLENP
Method: as §1, §2, §3

[4] = molecular target: T3, RARβ ligand-binding domain (GST-RAR-β-LBD) (Homo sapiens, UniProt P10826); assay: LanthaScreen TR-FRET RARβ co-activator (receptor binding) assay; format: biochemical; conditions: for EC50: estimated EC50, TR-FRET co-activator assay, 4 h incubation, read-out: EC50 (95% confidence range) RARβ; for binding-curve upper asymptote (coactivator recruitment), RARβ: Fig. 6B
T3 construct: purchased Invitrogen
T3 sequence (P10826 183-417 limits assumed): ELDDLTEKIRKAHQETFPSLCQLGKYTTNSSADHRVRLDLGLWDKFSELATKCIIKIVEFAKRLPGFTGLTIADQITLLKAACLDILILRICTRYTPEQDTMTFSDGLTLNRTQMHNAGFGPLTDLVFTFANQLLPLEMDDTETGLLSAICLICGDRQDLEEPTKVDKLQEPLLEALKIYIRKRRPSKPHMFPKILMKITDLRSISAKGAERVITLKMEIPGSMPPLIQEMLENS
Method: as §1, §2, §3

TERA2.cl.SP12 cells = assay: Immunocytochemistry for A2B5, TUJ-1 and cytokeratin 8; format: cell-based, human
Method: Third, we carried out assessment of protein expression using immunofluorescent techniques on cultures of TERA2.cl.SP12 cells treated with retinoids.
TERA2.cl.SP12 cells were seeded at 5000 cells per well on poly-D-lysine (25 μg/ml) coated cover slips in 6-well plates. Cells were treated with each retinoid at a concentration of 10 μM for 7, 14 and 21 days (the media was changed every 3–4 days). Cells were also treated with 1% DMSO for the same time periods as a […] control. At the end of the treatment period, cells were fixed (4% para-formaldehyde in PBS for 30 min at room temperature (RT) and rinsed with PBS. One set of experiments was used for the cell surface marker A2B5 (diluted 1:100, R&D systems), and the other set was prepared for intracellular staining using 1% Triton-X-100 (Sigma Aldrich) in PBS as a permeabilizing agent for 10 min at RT. Non-specific labeling was blocked by incubation with a solution of 1% goat serum (Sigma Aldrich) containing 0.2% Tween-20 (Sigma Aldrich) in PBS for one hour at RT. The primary antibodies β-III tubulin antibody (TUJ-1) (1:200, Affymetrix eBioscience) and CK-8 antibody (1:500, Affymetrix eBioscience) were diluted in blocking solution and incubated with the cells for 1 h at RT. After washing three times for 15 min with PBS, cells were incubated for 1 h in the dark with anti-mouse FITC-conjugated secondary antibody IgM (1:128, Sigma Aldrich) for A2B5 staining, and anti-mouse Alexafluor 488 IgG (1:600, Invitrogen) for TUJ-1 and CK-8 staining. Hoechst 33,342 nuclear staining dye (1:1000, Molecular Probes) was dissolved in blocking solution after the secondary antibody staining step for nuclear staining.
Immunocytofluorescent images of fixed cells were visualized using a Leica SP5 confocal microscope. Scale bars are shown at 25 μm.

TERA2.cl.SP12 stem cells = assay: Real-time PCR for neuronal markers NeuroD1 and PAX6; format: cell-based, human; conditions: 10 μM, Fig. 7B
Method: Second, NeuroD1 and PAX6 are retinoid-induced transcription factors involved in regulating neuronal differentiation,[49], [50] and are expressed in neurons derived from TERA2.cl.SP12 stem cells.
(§4) Real time PCR was carried out immediately after treatment on both cell line lysates with 0.25% trypsin–EDTA. TERA-2.cl.SP12 cells were seeded at a density of 1 × 10^6 cells per 25 cm^2 flask, 12–24 h before treatment. […] SH-SY5Y cells were seeded at a density of 1 × 10^6 cells per 25 cm^2 flask, 12–24 h before treatment. […] Commercial RNA extraction kits (Qiagen) and reverse transcription (Applied Biosystems) kits were purchased and procedures used according to the manufacturer instructions. Real time PCR was performed using the TaqMan® Universal PCR Master Mix (Life technologies) and TaqMan® gene expression system (Applied Biosystems) based on probe sets to the specific genes to be analysed. Genecodes used are as follows: RARβ (Hs00233407_m1), CYP26-A1 (Hs00175627_m1), RARα (Hs00940448_g1), RARγ (Hs01559234_m1), PAX-6 (Hs01088112_m1), NeuroD1 (Hs01922995_s1). GADPH (Hs02758991_g1) and ACTB (Hs99999903_m1) were used as internal control genes for TERA-2.cl.SP12 and SH-SY5Y, respectively.

[5] = tested on: SH-SY5Y human neuroblastoma cells; assay: Retinoid-induced gene expression (RARα, RARβ, RARγ, CYP26A1) by real-time PCR; format: cell-based
Method: As an additional assay of biological activity, short-term changes in expression of four genes in SH-SY5Y cells was employed; a neuroblastoma-derived lineage that undergoes neuronal differentiation in response to retinoid treatment. The four genes assayed, RARα, RARβ, RARγ and CYP26A, have RAREs associated with their promoters and may be directly regulated by retinoids.[51], [52]
as §4

Row | Compound | EC50 ([1]; estimated EC50, TR-FRET co-activator assay, 4 h incubation) [nM] | binding-curve upper asymptote (coactivator recruitment), RARα [1] | proportion of cells expressing differentiation markers SSEA-3, TRA-1–60, A2B5 [2] | EC50 [3] [nM] | binding-curve upper asymptote (coactivator recruitment), RARγ [3] | EC50 [4] [nM] | binding-curve upper asymptote (coactivator recruitment), RARβ ([4]; in words) | expression of epithelial phenotype marker cytokeratin 8 (TERA2.cl.SP12 cells; 10 μM, 1, 2 and 3 weeks, Fig. 7D) | expression of neuronal differentiation marker A2B5 (immunofluorescence) (TERA2.cl.SP12 cells; 10 μM, after 7 days, Fig. 7C) | neuronal differentiation by TUJ-1 staining (TERA2.cl.SP12 cells; 10 μM, up to 3 weeks, Fig. 7C) | NeuroD1 mRNA expression, rank order (TERA2.cl.SP12 stem cells; after 5 days) | NeuroD1 mRNA expression, rank order (TERA2.cl.SP12 stem cells; after 7 days) | induction of PAX6 expression, rank order (TERA2.cl.SP12 stem cells; up to 7 days) | induction of RARα and RARγ expression ([5]; 10 μM retinoid, over a 12 h period, Fig. 8A) | induction of RARβ expression, rank order ([5]; dose-response 1 nM to 1 μM, 8 h treatment, all doses, Fig. 8B) | induction of CYP26A1 expression, rank order ([5]; dose-response 1 nM to 1 μM, 8 h treatment, doses <1 μM, Fig. 8B) | EC50 [1] [nM] | RAR-type selectivity from binding assay ([4]; in words, from EC50 values of Table 1)
1 | Cc1sc(-c2ccc(C(=O)O)cc2)nc1-c1ccccc1 [GZ24] | 77.5 | lower asymptotes | very little activity | 109 | intermediate | 77.8 | very low asymptotes |  |  |  |  |  |  |  |  |  |  | 
2 | CC1=C(/C=C/C(C)=C/C=C/C(C)=C/C(=O)O)C(C)(C)CCC1 [ATRA, all-trans-retinoic acid, reference compound] |  | high curve asymptotes |  |  |  |  |  | not detectable | induced | most effective | GZ25 > GZ18 > ATRA | ATRA > GZ25 | GZ25 ≫ ATRA > GZ18 | greatest activity | GZ25 ≫ ATRA > GZ18 | GZ25 > GZ18 > ATRA |  | 
3 | CCOC(=O)c1ccc(-c2nc(-c3ccc4c(c3)C(C)(C)CCC4(C)C)c(C)s2)cc1 [GZ23] |  | lower asymptotes | very little activity | 847 | intermediate | 12.1 | high asymptotes |  |  |  |  |  |  |  |  |  | 88.9 | surprising selectivity for RARβ
